Experimental data: paper PMC12207802, “Discovery of coniferaldehyde as an inhibitor of caseinolytic protease to combat Staphylococcus aureus infections” (Molecular Medicine, 2025)

Target: T1, Caseinolytic protease P (ClpP) (Staphylococcus aureus, UniProt Q2G036)
T1 construct: clpP of S. aureus NCTC 8325-4 in pET-28a (+), Ni-purified
Assay: fluorogenic Suc-Leu-Tyr-AMC peptidase assay with purified ClpP; supported by fluorescence quenching (Ka), CETSA, CD and ClpXP GFP-SsrA degradation
Type: biochemical

T1 sequence (Q2G036 whole entry): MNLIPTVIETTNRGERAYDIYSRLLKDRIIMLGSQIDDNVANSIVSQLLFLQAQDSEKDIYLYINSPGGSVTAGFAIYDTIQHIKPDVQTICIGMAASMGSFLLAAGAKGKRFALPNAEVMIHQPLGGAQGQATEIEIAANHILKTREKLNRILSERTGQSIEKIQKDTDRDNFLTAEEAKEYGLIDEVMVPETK

How did the IC50 turn out when `COc1cc(/C=C/C=O)ccc1O` [CA, 4-hydroxy-3-methoxycinnamaldehyde] was run?
Its IC50 is 103 µM.
